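Tested at 5 concentrations; 48 h exposure; 96-well plates; endpoints linearly interpolated, else capped at highest concentration. GI50 marks 50% less growth.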 The source made the active and inactive calls. Rule as the data show it: active = GI50 up to about 1.1 µM and inactive = higher.

Test systems include CAKI-1; A549; SK-MEL-28; SF-268; SNB-19; HL-60; M14; UACC-62; RPMI-8226; MCF7; NCI-H23; SF-539; A498; HCC 2998; RXF 393; MDA-MB-435; SK-MEL-5; SW-620; DU-145; HOP-62.
What all share (assay): NCI anticancer screen, dose series, 48 h

Take `O=C(/C=C1\Nc2ccccc2N\C1=C/C(=O)c1ccc(F)cc1)c1ccc(F)cc1`: the GI50 in the experiment on CAKI-1 was > 100 µM (inactive); in the experiment on A549 it was > 100 µM (inactive); in the experiment with SK-MEL-28, > 100 µM (inactive); with SF-268, > 100 µM (inactive); in the experiment with SNB-19 it was > 100 µM (inactive); with HL-60 it was 46.5 µM (inactive). Moreover, the GI50 was > 100 µM (inactive) in the experiment on M14; > 100 µM (inactive) in the experiment with UACC-62; 51.4 µM (inactive) with RPMI-8226; 15.1 µM (inactive) with MCF7; > 100 µM (inactive) with NCI-H23; > 100 µM (inactive) in the experiment on SF-539. Also, the GI50 is > 100 µM (inactive) in the experiment on A498; 63.2 µM (inactive) with HCC 2998; > 100 µM (inactive) in the experiment on RXF 393; > 100 µM (inactive) in the experiment on MDA-MB-435; > 100 µM (inactive) with SK-MEL-5; > 100 µM (inactive) in the experiment on SW-620. For the same compound, the GI50 in the experiment on DU-145 is > 100 µM (inactive); in the experiment on HOP-62, 61 µM (inactive).

In the case of `N=C(/C=C/c1ccc(-c2cn3cc(/C=C/C(=N)N4CCCC4)ccc3n2)cc1)N1CCCC1`, the GI50 in the experiment on CAKI-1 was > 100 µM (inactive); in the experiment with A549, 61.9 µM (inactive); with SK-MEL-28, > 100 µM (inactive); in the experiment with SF-268 it was > 100 µM (inactive); with SNB-19 it was > 100 µM (inactive); in the experiment on HL-60, > 100 µM (inactive). The GI50 in the experiment with M14 is > 100 µM (inactive); with UACC-62, > 100 µM (inactive); in the experiment with RPMI-8226 it was > 100 µM (inactive); in the experiment with MCF7, > 100 µM (inactive); in the experiment with NCI-H23, > 100 µM (inactive); with SF-539, 47.3 µM (inactive). Further, the GI50 in the experiment with A498 is > 100 µM (inactive); with HCC 2998, > 100 µM (inactive); in the experiment on RXF 393, 50.6 µM (inactive); in the experiment with MDA-MB-435, > 100 µM (inactive); with SK-MEL-5 it was > 100 µM (inactive); with SW-620 it was > 100 µM (inactive). Moreover, the GI50 in the experiment on DU-145 was 50 µM (inactive); in the experiment with HOP-62, > 100 µM (inactive).

As for `O/N=N/c1cnccn1`, the GI50 in the experiment with CAKI-1 is 975 µM (inactive); in the experiment on A549, > 1250 µM (inactive); in the experiment with SK-MEL-28, > 1250 µM (inactive); with SF-268 it was > 1250 µM (inactive); with SNB-19, > 1250 µM (inactive); in the experiment with HL-60 it was 322 µM (inactive). The GI50 in the experiment on M14 is > 1250 µM (inactive); with UACC-62, > 959 µM (inactive); in the experiment on RPMI-8226, > 1250 µM (inactive); in the experiment with MCF7, 531 µM (inactive); in the experiment with NCI-H23, 859 µM (inactive); with SF-539, > 1190 µM (inactive). Besides, the GI50 with A498, in the experiment with HCC 2998, in the experiment on RXF 393, in the experiment on MDA-MB-435, in the experiment on SK-MEL-5 and in the experiment on SW-620 was > 1250 µM (inactive) throughout. Moreover, the GI50 in the experiment with DU-145 was 1090 µM (inactive); in the experiment with HOP-62, 218 µM (inactive).

In the case of `Cc1cc2[nH]c(Cl)c(/C=C3\C(=O)Nc4ccccc43)c2cc1O`, the GI50 was 5.25 µM (inactive) with CAKI-1; 5.08 µM (inactive) in the experiment with A549; 9.71 µM (inactive) in the experiment on SK-MEL-28; 4.69 µM (inactive) in the experiment on SF-268; 3.27 µM (inactive) in the experiment on SNB-19; 1.14 µM (inactive) in the experiment with HL-60. The GI50 with M14 was 2.88 µM (inactive); in the experiment on UACC-62, 1.23 µM (inactive); in the experiment with RPMI-8226, 2.7 µM (inactive); with MCF7 it was 1.88 µM (inactive); in the experiment with NCI-H23 it was 2.32 µM (inactive); with SF-539 it was 1.17 µM (inactive). Further, the GI50 in the experiment on A498 is 4.05 µM (inactive); in the experiment on HCC 2998, 4.2 µM (inactive); in the experiment on RXF 393, 2.25 µM (inactive); with MDA-MB-435 it was 0.29 µM (active); in the experiment on SK-MEL-5, 1.2 µM (inactive); in the experiment on SW-620 it was 1.81 µM (inactive). In addition, the figures for the GI50 with DU-145 and in the experiment on HOP-62 were 2.86 µM (inactive) and 4.93 µM (inactive), respectively.

(Values after ChEMBL document CHEMBL1201862, “PubChem BioAssay data set” (2004).)
